Target: T1, human RAR-β (Homo sapiens, UniProt P10826)
T1 sequence (P10826 1-455): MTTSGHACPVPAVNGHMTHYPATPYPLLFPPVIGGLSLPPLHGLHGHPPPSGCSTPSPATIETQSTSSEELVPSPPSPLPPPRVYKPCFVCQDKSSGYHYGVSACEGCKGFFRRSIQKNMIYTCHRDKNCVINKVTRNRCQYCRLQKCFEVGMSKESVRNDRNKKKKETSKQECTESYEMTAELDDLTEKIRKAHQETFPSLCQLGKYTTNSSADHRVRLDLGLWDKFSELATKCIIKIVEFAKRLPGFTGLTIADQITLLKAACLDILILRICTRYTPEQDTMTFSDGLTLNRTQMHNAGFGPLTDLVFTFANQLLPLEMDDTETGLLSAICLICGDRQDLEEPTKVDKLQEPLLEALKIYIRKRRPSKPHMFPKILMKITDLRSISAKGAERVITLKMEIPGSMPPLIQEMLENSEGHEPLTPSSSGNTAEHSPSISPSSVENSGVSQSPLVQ
Assay: Co-transfection assay (luciferase reporter induction in transfected COS-7 cells)
Protocol: The following assay is a measure of the in-vitro binding affinity of the given compound with human RAR-β in COS-7 cells. Binding of the compound to RAR-β will induce transcription of luciferase within the cells. This level of transcription can be quantified based on the amount of luminescence emitted after incubation of the cell lysate with luciferin.
COS-7 cells were cultured in Dulbecco Modified Eagle's Medium (DMEM) with 4 mM L-glutamine, 4.5 g/L glucose 1.5 g/L sodium bicarbonate and supplemented with 10% fetal bovine serum. Cells were transfected using the calcium phosphate:DNA co-precipitation method. A 10-cm plate of cells was transfected with 5 μg of luciferase reporter construct, 5 μg of expression vector for β-galactosidase, 1 μg of expression vector for RAR-β, and pUC19 as carrier, to a total of 20 μg.
β-galactosidase (5 μg) was included in each transfection to monitor transfection efficiency. Cells were incubated 6 hours at 37° C. in a CO2 incubator. The cells were re-suspended in fresh media containing 10% serum (96-well plate, 15000 cells per well) with or without compound (in 0.5% DMSO) and the plates were incubated at 37° C. in a CO2 incubator. Lysis buffer (1×) was added to cover the cells and the plates were incubated at ambient temperature for 15 min. Luciferase and β-galactosidase assays were performed 36 hours post-transfection, and the normalized luciferase response was determined as relative light units divided by β-galactosidase activity. Composition of 5× lysis buffer is 125 mM. Tris (pH 7.8) with H3PO4 10 mM trans-1,2 diaminocyclohexane-N,N,N′,N′-tetraaceticacid (CDTA), 10 mM dithiothereitol (DTT), 50% glycerol, 5% triton X-100.

fold induction at 3 µM	fold induction at 40 µM	fold induction at 10 µM	Compound	fold induction at 0.001 µM	fold induction at 0.03 µM	fold induction at 0.1 µM
			CC1=C(/C=C/C(C)=C/C=C/C(C)=C/C(=O)O)C(C)(C)CCC1 [ATRA, all-trans-retinoic acid, reference compound]	9.3	13.7	19.1
2	6		COc1ccc(-c2ccc3cc(B4OC(C)(C)C(C)(C)O4)ccc3c2)cc1C12CC3CC(CC(C3)C1)C2 [Example 9, 2-[6-(3-(1-Adamandyl)-4-methoxyphenyl)-naphthalen-2-yl]-4,4,5,5-tetramethyl[1,3,2]dioxaborolane]			
2.1		3.6	COc1ccc(-c2ccc3cc(B(O)O)ccc3c2)cc1C12CC3CC(CC(C3)C1)C2 [Example 10, 6-[-3-(1-Adamandyl)-4-methoxyphenyl)-2-naphthoboronic acid]			

— patent publication US7589239B2, “Therapeutic agents for the treatment of cancer, metabolic diseases and skin disorders” (Auspex Pharmaceuticals, priority 2005, dated 2009)
